Results taken from patent US11518735B2 (AE KYUNG INDUSTRIAL CO., LTD, priority 2017, dated 2022).
Entries after “also recorded” stand apart in the source; their conditions may differ.

Assay: Thermal stability by HPLC analysis, samples heated in oven at 90° C.
Type: physicochemical
Conditions: for HPLC peak area: 90° C. oven; for change in peak area (degree of decomposition): after 24 hours versus initial peak area
Experimental: The thermal stability tests were conducted by heating the compound samples of Formulas 3 and 7 in an oven maintained at 90° C. and measuring the degree of decomposition of each sample.

HPLC peak area (0 hour)	HPLC peak area (1 hour)	HPLC peak area (24 hours)	HPLC peak area (3 hours)	HPLC peak area (6 hours)	SMILES	change in peak area (degree of decomposition) (90° C.)	high-temperature stability compared with Formula 7 (HPLC, 90° C.)
22760548	22871539	22896857			CCCCCCCCCC/C=C/C(CC(=O)NCCCCCCCCCCCCCCCCCC)C(=O)O (stereo not shown) [Formula 3]	little change in the peak area ratio	better high-temperature stability; also recorded: improved stability
21694395		7124834	10982003	11400622	CCCCCCCC/C=C/CCCCCCCCNC(=O)CC(/C=C/CCCCCCCCCCCCCCCC)C(=O)O (stereo not shown) [Formula 7, reference compound]	nearly one third of the initial peak area	
